ChEMBL document CHEMBL1201862, “PubChem BioAssay data set” (2004)
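The compound was tested at five concentrations on cells cultured in 96-well plates, with a 48-hour exposure period. The concentration for 50% growth inhibition is given as GI50.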 Active and inactive are the calls of the source. Rule as the data show it: active = GI50 up to about 1.1 µM and inactive = higher.

What was measured:
Test in all cases: growth of human tumour cells (NCI), 48 h
[1] = tested on: ACHN
[2] = tested on: NCI-H23
[3] = tested on: MDA-MB-231
[4] = tested on: TK-10
[5] = tested on: Hs-578T
[6] = tested on: MOLT-4
[7] = tested on: SN12C
[8] = tested on: KM12
[9] = tested on: 786-0
[10] = tested on: SR
[11] = tested on: T47D
[12] = tested on: OVCAR-3
[13] = tested on: SF-295
[14] = tested on: K562
[15] = tested on: SW-620
[16] = tested on: HOP-92
[17] = tested on: SNB-19
[18] = tested on: CCRF-CEM
[19] = tested on: IGROV-1
[20] = tested on: OVCAR-4
[21] = tested on: MCF7
[22] = tested on: HL-60
[23] = tested on: DU-145
[24] = tested on: MDA-N
[25] = tested on: SK-OV-3
[26] = tested on: MDA-MB-435
[27] = tested on: EKVX
[28] = tested on: NCI-H226
[29] = tested on: COLO 205
[30] = tested on: HCT-15
[31] = tested on: NCI-H460
[32] = tested on: UACC-257
[33] = tested on: SK-MEL-2
[34] = tested on: HT-29
[35] = tested on: BT-549
[36] = tested on: SNB-75
[37] = tested on: SK-MEL-5
[38] = tested on: OVCAR-5
[39] = tested on: NCI/ADR-RES
[40] = tested on: M14
[41] = tested on: A549
[42] = tested on: UACC-62
[43] = tested on: HCT-116
[44] = tested on: UO-31
[45] = tested on: SF-268
[46] = tested on: A498
[47] = tested on: U-251
[48] = tested on: PC-3
[49] = tested on: RPMI-8226
[50] = tested on: RXF 393
[51] = tested on: SK-MEL-28
[52] = tested on: HCC 2998
[53] = tested on: HOP-62
[54] = tested on: Malme-3M
[55] = tested on: OVCAR-8
[56] = tested on: CAKI-1
[57] = tested on: LOX IMVI
[58] = tested on: NCI-H522
[59] = tested on: SF-539

Measured: GI50

COc1ccc(/C=N/NC(=O)c2ccccc2Nc2ccccc2C(=O)N/N=C/c2ccc(OC)c(OC)c2)cc1OC
> 100 µM: [30]
inactive: [1] > 100 µM | [2] > 100 µM | [3] 29.6 µM | [4] > 100 µM | [5] > 100 µM | [6] > 100 µM | [7] > 100 µM | [8] > 100 µM | [9] > 100 µM | [10] > 100 µM | [11] > 100 µM | [12] > 100 µM | [13] 39.9 µM | [14] > 100 µM | [15] > 100 µM | [16] 71.9 µM | [17] > 100 µM | [18] > 100 µM | [19] > 100 µM | [20] > 100 µM | [21] > 100 µM | [22] > 100 µM | [23] > 100 µM | [24] > 100 µM | [25] > 100 µM | [26] > 100 µM | [27] > 100 µM | [28] > 100 µM | [29] > 100 µM | [31] > 100 µM | [32] > 100 µM | [33] > 100 µM | [34] > 100 µM | [35] > 100 µM | [36] > 100 µM | [37] > 100 µM | [38] > 100 µM | [39] > 100 µM | [40] 36.5 µM | [41] > 100 µM | [42] > 100 µM | [43] > 100 µM | [44] > 100 µM | [45] > 100 µM | [46] > 100 µM | [47] > 100 µM | [48] > 100 µM | [49] > 100 µM | [50] > 100 µM | [51] > 100 µM | [52] > 100 µM | [53] > 100 µM | [54] 51.5 µM | [55] > 100 µM | [56] > 100 µM

O=C1c2ccccc2-n2c1nc1cc(Cl)ccc1c2=O
active: [11] 0.807 µM
inactive: [1] > 100 µM | [2] 11.8 µM | [3] > 100 µM | [4] > 100 µM | [5] 20.2 µM | [6] 11.9 µM | [7] > 100 µM | [8] 39.9 µM | [9] 89.7 µM | [10] 6.62 µM | [12] 23 µM | [13] 50.7 µM | [14] 4.05 µM | [16] 71.6 µM | [17] > 100 µM | [18] 3.84 µM | [19] 33.3 µM | [20] 27.7 µM | [21] > 100 µM | [23] 24.1 µM | [24] 14.5 µM | [25] > 100 µM | [26] 2.02 µM | [57] 14 µM | [27] > 100 µM | [28] > 100 µM | [29] > 100 µM | [31] 30.3 µM | [32] 9.68 µM | [33] 43.9 µM | [34] 61.9 µM | [35] > 100 µM | [36] 85.9 µM | [58] 29.9 µM | [37] 20 µM | [38] > 100 µM | [39] > 100 µM | [40] 15.8 µM | [41] 66.8 µM | [42] 11.2 µM | [43] > 100 µM | [44] > 100 µM | [45] 61.9 µM | [46] > 100 µM | [47] 51.4 µM | [59] > 100 µM | [48] > 100 µM | [49] 5.04 µM | [50] 55.7 µM | [52] > 100 µM | [53] 81.7 µM | [54] 6.7 µM | [55] 36.8 µM | [56] 36.8 µM
21.2 µM: [30]

CCOC(=O)/C=C(/C(=O)OCC)n1ccc(=O)n(Cc2cn(COCCOC(C)=O)nn2)c1=O
20.3 µM: [30]
inactive: [1] 14.8 µM | [2] 20.7 µM | [3] 28.8 µM | [4] 16.8 µM | [5] 26.4 µM | [6] 17.3 µM | [7] 34.8 µM | [8] 15.5 µM | [9] 21.7 µM | [10] 19.4 µM | [11] 32.1 µM | [12] 17.8 µM | [13] > 100 µM | [14] 19.1 µM | [15] 7.05 µM | [16] 1.53 µM | [17] 70.5 µM | [18] 2.14 µM | [19] 18 µM | [20] 22.9 µM | [21] 15 µM | [23] 40.2 µM | [24] 50 µM | [25] > 100 µM | [26] 17.9 µM | [57] 20.9 µM | [27] 16.9 µM | [28] 33.7 µM | [29] 4.91 µM | [31] 15.6 µM | [32] 19.3 µM | [33] 25.2 µM | [34] 18.1 µM | [35] 16.4 µM | [36] 33 µM | [58] 4.54 µM | [37] 25.8 µM | [38] 20.1 µM | [39] 20.3 µM | [41] > 100 µM | [42] 18.3 µM | [43] 31.6 µM | [44] 18 µM | [45] 18.2 µM | [46] 20.5 µM | [47] 28 µM | [59] 20.3 µM | [48] 35.4 µM | [49] 19.5 µM | [50] 25.6 µM | [51] 16.3 µM | [52] 17.8 µM | [53] > 100 µM | [55] 16.4 µM | [56] 4.74 µM

NCC(O)CNCC/C=C\C/C=C\C/C=C\C/C=C\C/C=C\C/C=C\CCCCC/C=C\CCNCC(O)CN (stereo unspecified)
active: [10] 0.435 µM | [22] 0.453 µM | [27] 0.731 µM
inactive: [1] 1.8 µM | [3] 1.75 µM | [4] 1.57 µM | [5] 1.36 µM | [6] 1.24 µM | [7] 1.64 µM | [8] 1.58 µM | [9] 1.69 µM | [11] 2 µM | [12] 1.98 µM | [13] 2.07 µM | [14] 2.29 µM | [15] 1.78 µM | [16] 2.01 µM | [17] 1.9 µM | [19] 1.71 µM | [20] 1.93 µM | [21] 2.15 µM | [23] 1.77 µM | [24] 1.67 µM | [25] 2.64 µM | [26] 1.65 µM | [57] 1.79 µM | [28] 2.64 µM | [29] 1.96 µM | [31] 1.82 µM | [32] 2.13 µM | [33] 1.81 µM | [34] 1.75 µM | [35] 2.94 µM | [36] 1.73 µM | [58] 1.53 µM | [38] 1.94 µM | [39] 1.47 µM | [40] 1.94 µM | [41] 1.85 µM | [42] 1.79 µM | [43] 1.78 µM | [44] 1.9 µM | [45] 1.83 µM | [46] 1.83 µM | [47] 1.72 µM | [59] 1.9 µM | [48] 1.92 µM | [49] 1.66 µM | [51] 3.4 µM | [53] 1.97 µM | [54] 1.94 µM | [55] 1.78 µM | [56] 2.08 µM
1.6 µM: [30]

CCN(CC)c1ccc2cc(C(=O)Nc3ccc(C)cc3)c(=N)oc2c1
> 100 µM: [30]
inactive: [1] > 100 µM | [2] > 100 µM | [3] > 100 µM | [5] > 100 µM | [6] > 100 µM | [7] > 100 µM | [8] > 100 µM | [9] > 100 µM | [10] > 100 µM | [11] > 100 µM | [12] > 100 µM | [14] > 100 µM | [15] > 100 µM | [16] > 100 µM | [17] > 100 µM | [18] > 100 µM | [19] > 100 µM | [20] > 100 µM | [21] > 100 µM | [22] > 100 µM | [23] > 100 µM | [24] > 100 µM | [25] > 100 µM | [26] > 100 µM | [57] > 100 µM | [27] > 100 µM | [28] > 100 µM | [29] > 100 µM | [31] > 100 µM | [32] > 100 µM | [33] > 100 µM | [34] > 100 µM | [35] > 100 µM | [36] > 100 µM | [37] > 100 µM | [38] > 100 µM | [39] > 100 µM | [40] > 100 µM | [41] > 100 µM | [42] > 100 µM | [43] > 100 µM | [45] > 100 µM | [46] > 100 µM | [47] > 100 µM | [48] > 100 µM | [49] > 100 µM | [50] > 100 µM | [51] > 100 µM | [52] > 100 µM | [53] > 100 µM | [54] > 100 µM | [55] > 100 µM | [56] > 100 µM
